Data: patent publication US11058661B2, “Compositions and methods for lowering triglycerides in a subject on concomitant statin therapy and having hsCRP levels of at least about 2 mg/L” (priority 2018, dated 2021)

System: statin-treated patients with fasting TG ≥200 and <500 mg/dL and baseline hsCRP ≥2.0 mg/L
Assay: ANCHOR post-hoc subgroup: lipid parameters, lipoproteins, markers of oxidation and inflammation
Assay type: in vivo, human
Settings: for reduction of TG compared with placebo: printed as a reduction
Method: A multi-center, placebo-controlled, randomized, double-blind, 12-week study is performed to evaluate the efficacy and safety of >96% E-EPA in patients with fasting triglyceride levels ≥200 mg/dl and <500 mg/dl despite statin therapy (the mean of two qualifying entry values needs to be ≥185 mg/dl and at least one of the values needs to be ≥200 mg/dl). The primary objective of the study is to determine the efficacy of >96% E-EPA 2 g daily and 4 g daily, compared to placebo, in lowering fasting TG levels in patients with high risk for cardiovascular disease and with fasting TG levels ≥200 mg/dL and <500 mg/dL, despite treatment to LDL-C goal on statin therapy.
The population for this study is men and women >18 years of age with a body mass index ≤45 kg/m^2 with fasting TG levels greater than or equal to 200 mg/dl and less than 500 mg/dl and on a stable does of statin therapy (with or without ezetimibe). The statin must be atorvastatin, rosuvastatin or simvastatin. The dose of statin must be stable for ≥4 weeks prior to the LDL-C/TG baseline qualifying measurement for randomization. The statin dose will be optimal such that the patients are at their LDL-C goal at the LDL-C/TG baseline qualifying measurements. The same statin at the same dose will be continued until the study ends.
At the end of the 4-week diet and lifestyle stabilization period or the 6-week diet and stabilization and washout period, eligible patients will enter the 2-week LDL-C and TG qualifying period and will have their fasting LDL-C and TG levels measured at Visit 2 (Week-2) and Visit 3 (Week-1). Eligible patients must have an average fasting LDL-C level ≥40 mg/dL and <100 mg/dL and an average fasting TG level ≥200 mg/dL and <500 mg/dL to enter the 12-week double-blind treatment period. The LDL-C and TG levels for qualification will be based on the average (arithmetic mean) of the Visit 2 (Week-2) and Visit 3 (Week-1) values. If a patient's average LDL-C and/or TG levels from Visit 2 and Visit 3 fall outside the required range for entry into the study, an additional fasting lipid profile can be collected 1 week later at Visit 3.1. If a third sample is collected at Visit 3.1, entry into the study will be based on the average (arithmetic mean) of the values from Visit 3 and Visit 3.1.
After confirmation of qualifying fasting LDL-C and TG values, eligible patients will enter a 12-week, randomized, double-blind treatment period. At Visit 4 (Week 0), patients will be randomly assigned to 1 of the following treatment groups: • >96% E-EPA 2 g daily, • >96% E-EPA 4 g daily, or • Placebo.
>96% E-EPA is provided in 1 g liquid-filled, oblong, gelatin capsules. The matching placebo capsule is filled with light liquid paraffin and contains 0 g of >96% E-EPA. >96% E-EPA capsules are to be taken with food (i.e. with or at the end of a meal).
During the double-blind treatment period, patients will take 2 capsules (>96% E-EPA or matching placebo) in the morning and 2 capsules in the evening for a total of 4 capsules per day. • Patients in the >96% E-EPA 2 g/day treatment group will receive 1>96% E-EPA 1 g capsule and 1 matching placebo capsule in the morning and in the evening. • Patients in the >96% E-EPA 4 g/day treatment group will receive 2>96% E-EPA 1 g capsules in the morning and evening.
For TG, TC, HDL-C, LDL-C, calculated non-HDL-C, and VLDL-C, baseline will be defined as the average of Visit 4 (Week 0) and the preceding lipid qualifying visit (either Visit 3 [Week-1] or if it occurs, Visit 3.1) measurements. Baseline for all other efficacy parameters will be the Visit 4 (Week 0) measurement.
For TG, TC, HDL-C, LDL-C, calculated non-HDL-C, and VLDL-C, Week 12 endpoint will be defined as the average of Visit 6 (Week 11) and Visit 7 (Week 12) measurements.
Week 12 endpoint for all other efficacy parameters will be the Visit 7 (Week 12) measurement. […]

[1] = 4 g/day vs placebo, baseline to week 12, Hodges-Lehmann median
[2] = 4 g/day vs placebo, baseline to week 12, Hodges-Lehmann median, listed as EPA-E
[3] = 4 g/day, baseline to week 12, median

## CC/C=C\C/C=C\C/C=C\C/C=C\C/C=C\CCCC(=O)OCC [Icosapent Ethyl, ethyl eicosapentaenoate]
[1]
  Apo B Median Difference in % Change From Baseline vs Placebo: −7.4%
  Apo C-III Median Difference in % Change From Baseline vs Placebo: −16.0%
  HDL-C Median Difference in % Change From Baseline vs Placebo: −5.2%
  ICAM-1 Median Difference in % Change From Baseline vs Placebo: +1.1%
  IL-6 Median Difference in % Change From Baseline vs Placebo: −4.2%
  LDL-C Median Difference in % Change From Baseline vs Placebo: −5.0%
  Lp-PLA2 Median Difference in % Change From Baseline vs Placebo: −19.6%
  RLP-C Median Difference in % Change From Baseline vs Placebo: −23.0%
  TC Median Difference in % Change From Baseline vs Placebo: −11.1%
  TG Median Difference in % Change From Baseline vs Placebo: −19.9%
  VLDL-C Median Difference in % Change From Baseline vs Placebo: −21.0%
  VLDL-TG Median Difference in % Change From Baseline vs Placebo: −22.9%
[2]
  Apo C-III Median Difference in % Change From Baseline vs Placebo: −16%
  TG Median Difference in % Change From Baseline vs Placebo: −20%
  hsCRP Median Difference in % Change From Baseline vs Placebo: −17.9%
[3]
  Apo B Change From Baseline, %: −0.5%
  Apo C-III Change From Baseline, %: −7.7%
  HDL-C Change From Baseline, %: −2.1%
  ICAM-1 Change From Baseline, %: +3.3%
  IL-6 Change From Baseline, %: −1.6%
  LDL-C Change From Baseline, %: +2.8%
  Lp-PLA2 Change From Baseline, %: −13.3%
  Non-HDL-C Change From Baseline, %: −4.5%
  Ox-LDL Change From Baseline, %: −2.9%
  RLP-C Change From Baseline, %: −26.3%
  TC Change From Baseline, %: −2.6%
  VLDL-C Change From Baseline, %: −11.8%
  hsCRP Change From Baseline, %: −10.5%
  reduction of TG compared with placebo: 19.9%
4 g/day, baseline to week 12, median, listed as EPA-E
  reduction of TG compared with placebo: about 19.9%
4 g/day, week 12, median
  Apo B End of Treatment: 93.5 mg/dL
  Apo C-III End of Treatment: 14.0 mg/dL
  Apo C-III End of Treatment (Table 3): 14 mg/dL
  HDL-C End of Treatment: 36.0 mg/dL
  ICAM-1 End of Treatment: 300.5 ng/mL
  IL-6 End of Treatment: 2.8 pg/mL
  LDL-C End of Treatment: 83.5 mg/dL
  Lp-PLA2 End of Treatment: 163.0 ng/mL
  Non-HDL-C End of Treatment: 125.0 mg/dL
  Ox-LDL End of Treatment: 54.1 U/L
  TC End of Treatment: 166.0 mg/dL
  VLDL-C End of Treatment: 38.0 mg/dL
  VLDL-TG End of Treatment: 154.5 mg/dL
  hsCRP End of Treatment: 3.7 mg/L
4 g/day, week 12, median, fasting
  TG End of Treatment: 220.8 mg/dL
